The results in this text go back to US20070148660A1, “Treatment of maladaptive substance use with H-ras antagonists” (The Regents of the University of California, priority 2005, published 2007).

For test [1], the system named is Ras. Put plainly: Ras activity assay (Raf-1-Ras binding domain GST-agarose), hippocampal slices. The test is classed as cell-based, mouse. The procedure: The treated hippocampal homogenates (250 μg) were incubated with […] of Raf-1-Ras binding domain GST-agarose for 45 min at 4° C. while rotating, as per manufacturer's instructions. […] Results were quantified by NIH Image 1.61.

For test [2], the system named is NMDAR. The experiment in a line: NMDAR-mediated EPSCs, whole-cell voltage clamp, hippocampal CA1. The test is classed as cell-based, mouse. The settings on record: for effect on the ethanol-induced inhibition of NMDAR-mediated EPSCs: inhibitor applied before ethanol, hippocampal slices. Here is the method: Electrophysiological recordings were performed in C57BL/6J mice ranging from P21 to P26. Briefly, mice were anesthetized with halothane and decapitated as per University of California, San Francisco animal care guidelines. Horizontal sections of the hippocampus ([…]) were prepared with a vibratome (Leica, Nussloch, Germany). Slices were placed in a holding chamber and allowed to recover for at least 1 hr before being placed in the recording chamber and superfused with aCSF saturated with 95% O2/5% CO2 and containing (in mM): 119 NaCl, 1.6 KCl, 1.0 NaH2PO4, 1.3 MgCl2 (for EPSCs) or 0.01 MgCl2 (for field excitatory postsynaptic potentials (fEPSPs)), 2.5 CaCl2, 26.2 NaHCO3 and 11 glucose. Picrotoxin (100 μM) was added to block gamma-aminobutyric acid-A (GABAA) receptor-mediated inhibitory synaptic transmission, and CNQX (for EPSCs) or NBQX (for fEPSPs) (10 μM) was added to block α-amino-3-hydroxy-5-methyl-4-isoxalepropionate (AMPA)/Kainate receptors. Cells were visualized using infrared differential interference contrast video microscopy.
Whole-cell voltage clamp-recordings were made using an Axopatch ID or a MultiClamp 700A amplifier (Axon Instruments, Union City, Calif.). Electrodes (3.5-5.0 MΩ) contained (in mM): 120 Cesium methansulfonate, 20 HEPES, 0.4 EGTA, 2.8 NaCl, 5 TEA-Cl, 2.5 MgATP, and 0.25 NaGTP (pH 7.2-7.3), buffer at 270-285 mOsm. Series resistance (10-30 MΩ) and input resistance were monitored on-line with a 4 mV depolarizing step (50 ms) given just after every afferent stimulus. Recordings from the CA1 region of the hippocampus were obtained with a bipolar stimulating electrode that was placed 100-300 μm rostral to the recording electrode and was used to stimulate excitatory afferents at 0.1 Hz. Neurons were voltage-clamped at +40 mV to evoke NMDAR-mediated EPSCs. At this potential, NMDARs have a maximal open probability and the Mg^2+ block is removed. EPSCs were filtered at 2 kHz, digitized at 5-10 kHz and collected on-line using Igor Pro software (Wavemetrics, Lake Oswego, Oreg.) or pClamp 9 (Axon Instruments, Union City, Calif.). NMDAR example traces were constructed by averaging 20 EPSCs (200 sec) elicited at +40 mV during baseline, ethanol application, drug application or drug application with ethanol. To calculate the decay time (τ), Igor Pro software was used to fit exponential decay curves to averaged NMDAR-mediated EPSCs using the formula: y=A1exp(−invTau1*x)+A2exp(−invTau2X).

For test [3], the target named is Raf-1-Ras binding domain GST agarose (UniProt P04049). The experiment in a line: pull-down of hippocampal homogenates with Raf-1-Ras binding domain GST-agarose, Western blot with pan anti-Ras; ratio of Ras-GTP over total Ras, normalized to the control. For orientation: A western blot detects proteins with antibodies after separation by electrophoresis.

As to `[Cl-].[K+]` [KCl], the Ras activity entry in test [1] (50 mM KCl, 5 min, hippocampal slices) is reported as “increases Ras activity”.
For the compound `C[C@H](NC(c1cccc2[nH]c(=O)c(=O)[nH]c12)P(=O)(O)O)c1ccc(Br)cc1` (some centres unmarked) [NVP-AAM077, reference compound], the “decrease of NMDAR EPSCs” value in test [2] (NVP-AAM077 0.4 μM, n=6) turned out to be 55±4%. In test [2] (NVP-AAM077 application, data not shown), the “NMDAR-mediated EPSCs in slices first treated with ethanol and ifenprodil” value was “no effect”. Further, the weighted decay time in test [2] (in the presence of NVP-AM077 (0.4 μM), n=6, baseline 43.0±2.1 ms) was found to be 68.7 ± 9.4 ms. Further, the “effect on the ethanol-induced inhibition of NMDAR-mediated EPSCs” value in test [2] is recorded as “occluded”.
With `CC(C(O)c1ccc(O)cc1)N1CCC(Cc2ccccc2)CC1` (centres unmarked) [ifenprodil, reference compound], the “decrease of NMDAR EPSCs” value in test [2] (ifenprodil 3 μM, n=5) was 37+5%. In addition, the “NMDAR-mediated EPSCs in slices treated with both ethanol and NVP-AAM077” value in test [2] (ifenprodil application, data not shown) is “further inhibition”. In addition, the weighted decay time in test [2] (in the presence of ifenprodil (3 μM), n=7, baseline 41.2±3.4 ms) is 34.7 ± 4.5 ms. The “effect on the ethanol-induced inhibition of NMDAR-mediated EPSCs” value in test [2] was “did not”.
“GTP-bound active Ras, endogenous in mouse hippocampal slices (from UniProt Q61411 1-186)”: the fold increase of Ras-GTP pulled down, ethanol-treated over control slices in test [3] came to 2 fold.
As for “Tat-peptide: Tat-peptide (YGRKKRRQRRR: SEQ ID NO:2) synthesized by Syn Pep, used as a control”, the “effect on ethanol-mediated increase in endogenous Ras activity” value in test [1] (pre-incubation 2 hrs (Tat-H-Ras DN printed 2 mM, Tat-peptide 2 μM), then 100 mM ethanol 15 min) is recorded as “did not”.
